Source: US12319707B2, “Dosage unit form(s) comprising BTS and BTS(OMe) for use in boron neutron capture therapy and methods thereof” (TAE Life Sciences, priority 2021, dated 2025)

What was measured:
FaDu cells = experiment: Boron uptake in FaDu cells in vitro (ICP-OES); assay type: cell-based, human; conditions: for intracellular boron concentration: equimolar 2.5 mM compound in HBSS, 2 hr, 37° C., ICP-OES
CT26 cells = experiment: Boron uptake in CT26 cells in vitro (ICP-OES); assay type: cell-based, mouse; conditions: CT26 cell line, single experiment
From the text: As a result, it accumulates boron compounds at significant levels. Additionally, FaDu also grows well as an established xenograft model in SCID mice. This disclosure endeavored to determine whether a mouse-derived cancer cell line, CT-26, is suitable for BNCT experiments. By way of background, CT26 is a syngeneic model, it can be implanted and established in wild-type BalbC mice and provides a convenient and low-cost model.
Briefly, CT26 cells were harvested and washed with PBS two (2) times, and the count was adjusted 2 million/ml in HBSS media Boron compounds were then added to cells at the final concentration of 2.5 mM in HBSS and the cells were incubated at 37° C. in a humidified 5% CO2 atmosphere for 2.0 hrs. with shaking. Following a two (2) hr. incubation, cells were harvested and washed two times with ice cold PBS. Cells were suspended in 1 ml ice cold PBS and a portion (50 NI) was lysed in RIPA buffer and protein content was determined by BCA assay.
The remaining portion (950 NI) was subjected to nitric acid lysis (66.7% acid at 80° C.) and boron measurements were carried out using ICP-OES.
Low expression of LAT-1 in CT26 estimated by Western blot is consistent with the overall reduced boron uptake. Each bar represents three (3) independent experiments performed on different days (FaDu) or a single experiment (CT-26) Error bars represent 1 standard deviation. […]

[1] = test system: FaDu, A375, SCC-25, A253, and Detroit 562; experiment: BTS uptake across head and neck cancer and melanoma cell lines; assay type: cell-based, human; conditions: 2 hours treatment, each of the five cell lines
Description: To evaluate the uptake of BTS in multiple head and neck cancer cell lines as well as melanoma cell lines the following experiments were performed using the following protocols.
Briefly, five (5) human-derived cell lines (FaDu, A375, SCC-25, A253, and Detroit 562), all representing cancer indications relevant to BNCT treatment, were cultured, and treated with either BPA-fructose (the standard of care) or with BTS for two (2) hours. The cells were then washed to remove the compounds, harvested, and treated as per the protocol described above. Boron uptake was reported as μg boron per mg of cellular protein as determined by ICP OES and by the BCA assay, respectively.

[2] = test system: F98 and C6 rat glioma cell lines; experiment: BTS uptake using rat glioma cell lines; assay type: cell-based; conditions: 2 hr, F98 and C6 cells
From the text: Rat glioma cell lines were extensively used as orthotopic cancer models to conduct reactor based BNCT studies using either innovative boron carriers or a myriad of ways to enhance the uptake of BPA, including convection enhanced delivery of boronoporphyrins (Yang, et al., doi:10.1016/j.apradiso.2014.01.002), or pre-treatment of tumors with L-DOPA (Barth, et al., J Neurooncol. 2009; 94:299-312).
In this experiment, used cultured cell lines to confirm that BTS can be used for efficient boron delivery into both F98 and C6 rat glioma cell lines. […] This compound is expected to cross BBB and will be relevant for BNCT of brain tumors.

[3] = Pharmacokinetics in non-tumor-bearing Balb/C mice (blood boron by ICP OES); assay type: in vivo; conditions: for CL / Vss: i.v. tail vein, Balb/C male mice, blood boron
Description: To determine the pharmacokinetics of BTS versus BPA (BPA-fructose) in blood, the following experiments were performed using the following protocols and under the parameters set forth in Table II. Briefly, […] of each compound ([…] and BPA-fructose) was injected into the tail vein of Balb/C non-tumor bearing male mice (5 mice per group). Blood was drawn at the following time points: 2, 5, 16, 30, 60, 120 and 240 min into EDTA-coated tubes. Boron concentration was measured using ICP OES following the digestion in concentrated nitric acid for one (1) hr. The boron concentration was normalized to 1 mL of blood and plotted using GraphPad Prizm. The PK parameters (see 20(B)) were obtain using PK Solver version 2.0 using compartmental analysis. BPA-fructose was used as a reference substance.

subcutaneous FaDu tumors = experiment: Time-course biodistribution and tumor to blood ratio in mice bearing subcutaneous FaDu tumors; assay type: in vivo; conditions: 400 mg/kg bolus i.v.
Description: To determine the biodistribution of BTS and BTS(OMe) and the tumor to blood ration, the following experiments were performed using the following protocols. Briefly, all compounds tested, with the exception of BPA, were prepared as 100 mg/mL stocks. BPA was prepared as a fructose solution at 25 mg/ml. The concentrations were confirmed by ICP OES prior to the study. The blood and tissues (tumor, kidney, and pancreas) were harvested at the times indicated, weighed, and placed inside the Teflon containers and digested using a CEM microwave oven. The digested tissues were analyzed by ICP OES to determine the boron concentration.
All animal studies were carried out following the “Guide for the care and use the laboratory animals,” Eighth Edition and Animal Welfare Act (USDA). Briefly, human hypopharyngeal squamous cell carcinoma FaDu cells were maintained in DMEM, supplemented with L-glutamine and 10% FBS. Subcutaneous (s.c.) tumors were generated by injection of 2.5×10^6 cancer cells mixed at a 1:1 dilution with Matrigel (Corning Life Sciences) in the right flank of female CB17 SCID mice. Tumor sizes were determined by caliper measurements, and the tumor volume was calculated as width^2×Length/2, wherein width is the smallest dimension and length is the largest dimension. Tumors were allowed to grow untreated until they reached an approximate volume of 300 mm^3. At that point, animals were randomized and allocated to each treatment group based on tumor volume at the time of treatment initiation to ensure similar mean tumor size and variation in each group.
Each group received a single dose of BPA at […] or a test article at either 400 mg/kg or […] via intravenous tail vein injection. […] Two (2) hrs. post dose, blood was collected from each mouse from the submandibular vein into K2 EDTA coated tubes. Tumor and organs were collected for boron analysis.
In order to determine the biodistribution of BTS and BTS(OMe) in FaDu-tumor bearing mice and determine the most appropriate time to harvest the tumor and organs of interest during the subsequent dose-escalation studies, 400 mg/kg doses of both molecules were administered as a bolus i.v. injection. BPA-fructose was administered at a dose of […] due to its solubility constraints and the requirements for the maximum i.v. volume allowed. The boron compound accumulation in blood/organs was determined by ICP OES and expressed as μg boron per gram of tissue.

[4] = test system: FaDu, Detroit 562, MeWo, A549, HCC-1954 xenografts; experiment: Boron uptake across panel of established tumor xenografts; assay type: in vivo; conditions: BTS or BTS(OMe) 800 mg/kg vs BPA 200 mg/kg, 2 hours post-injection, SCID CB-17 mice
From the text: In a further experiment, to ascertain whether BTS and BTS(OMe) are taken up to a relatively higher degree across cancer multiple cell lines which results in a higher boron concentration, the following protocol was used. Briefly, a panel of five (5) human cancer cell lines derived from multiple indications that would be considered for treatment using BNCT were used. Specifically, the panel consisted of Head and Neck Carcinomas (FaDu and Detroit 562), melanoma (MeWo), non-small cancer lung carcinoma (A549), and breast carcinoma (HCC-1954).
Using standard methods, subcutaneously implanted established mouse xenografts were grown in SCID CB-17 mice. The treatment began when the tumors reached 150-200 mm^3 as follows: the BTS or BTS(OMe) arms received 800 mg/kg and the control BPA arm received 200 mg/kg. The animals were euthanized at two (2) hours post-injection. The tumors were harvested, weighed, and digested using the standard methods. The concentration of boron was measured by ICP OES and plotted as microgram per gram tissue. […] However, the absolute uptake varied between the cell lines with the overall lowest uptake observed in the Detroit 562 tumors.

Solubility in water = assay type: physicochemical
Description: To determine the solubility and impurity profiles of BTS and BTS(OMe) in solution, the following experiments were performed using the following protocols. Briefly, BTS test article preparation(s) were prepared by dissolving in water and adjusting pH to 7-7.5 by NaOH.
BTS(OMe) test article preparation(s) were prepared by dissolving in water and gradually raising pH by adding NaOH until all the crystals are solubilized. The pH at that point is approximately 9.5-10. Fructose is then added at the ratio of 1.1 mol/mol BTS(OMe). The pH is adjusted to 7-7.5 using concentrated HCl.
Both solutions were adjusted to 100 mg/mL and 0.2 μm filtered. The actual concentrations are confirmed by ICP OES.

LAT-1 [5] = target: T1, LAT-1 (Homo sapiens, UniProt Q01650); experiment: Uptake competition assay with phenylalanine in FaDu cells; assay type: cell-based; design: endogenous in cells; host or cells: FaDu; conditions: 0.5 mM compound, Phe 0.01 to 20 mM, compared to BTS(OMe) or BPA
Description: To determine the ability for BTS and BTS(OMe) to mediate LAT-1, the following experiments were performed using the following protocols. Briefly, FaDu cells (2 million) were incubated in HBSS medium for two (2) hrs. at 37° C. with 0.5 mM of either (i) BTS, (ii) BTS(OMe), or (iii) BPA-fructose in the absence (19A) or presence of increasing concentrations of LAT-1 specific inhibitor JPH203-dichloride, (19A) or phenylalanine, a competitor (19B). Following incubation, the cells were harvested and washed with cold PBS. The amount of each compound that was taken up by the cells was determined by ICP OES. The IC50 determination was made by a three (3) parameter inhibitor non-linear regression fit using Prism (Graph Pad) software.
In the competition assay, increased concentration of Phe in the range of 0.01 to 20 mM was used. […] (FIG. 19).
Target sequence in this assay (Q01650 whole entry): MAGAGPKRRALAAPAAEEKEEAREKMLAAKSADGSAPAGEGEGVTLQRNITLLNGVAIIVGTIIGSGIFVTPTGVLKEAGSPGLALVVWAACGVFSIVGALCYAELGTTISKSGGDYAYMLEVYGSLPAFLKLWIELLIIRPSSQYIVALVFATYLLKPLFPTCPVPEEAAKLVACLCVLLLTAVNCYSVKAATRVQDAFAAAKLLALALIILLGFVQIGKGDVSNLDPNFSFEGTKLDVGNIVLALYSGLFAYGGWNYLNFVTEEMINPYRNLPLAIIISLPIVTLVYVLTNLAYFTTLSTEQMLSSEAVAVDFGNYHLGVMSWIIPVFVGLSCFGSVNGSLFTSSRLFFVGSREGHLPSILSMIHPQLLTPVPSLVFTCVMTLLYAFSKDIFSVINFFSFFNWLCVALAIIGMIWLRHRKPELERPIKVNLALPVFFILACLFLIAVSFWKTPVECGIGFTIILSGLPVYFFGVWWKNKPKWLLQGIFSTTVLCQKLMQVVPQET
Target sequence in this assay (P08195 102-630 partner): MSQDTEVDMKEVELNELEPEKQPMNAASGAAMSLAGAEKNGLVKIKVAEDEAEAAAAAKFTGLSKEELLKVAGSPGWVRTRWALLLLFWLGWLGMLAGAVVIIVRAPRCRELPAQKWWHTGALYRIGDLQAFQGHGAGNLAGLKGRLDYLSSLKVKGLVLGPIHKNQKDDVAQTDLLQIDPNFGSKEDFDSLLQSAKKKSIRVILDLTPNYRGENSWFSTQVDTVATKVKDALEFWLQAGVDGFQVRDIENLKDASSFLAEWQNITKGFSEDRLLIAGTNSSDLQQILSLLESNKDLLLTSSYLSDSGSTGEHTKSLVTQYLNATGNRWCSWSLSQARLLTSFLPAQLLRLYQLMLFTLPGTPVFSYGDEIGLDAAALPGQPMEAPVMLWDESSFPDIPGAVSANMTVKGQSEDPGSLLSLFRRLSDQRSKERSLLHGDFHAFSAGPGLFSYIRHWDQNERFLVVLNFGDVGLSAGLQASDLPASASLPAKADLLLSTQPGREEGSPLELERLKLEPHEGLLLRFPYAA

LAT-1 [6] = target: T1, LAT-1; experiment: Boron accumulation in presence of LAT-1 inhibitors (unpublished); assay type: cell-based; conditions: unpublished earlier work of the applicant
Target sequence in this assay (Q01650 whole entry, species assumed): as the sequence (Q01650 whole entry) above
Target sequence in this assay (P08195 102-630 partner, species assumed): as the sequence (P08195 102-630 partner) above

[7] = Cellular retention of boron after removal of boron source from the media; assay type: cell-based
subcutaneous FaDu = experiment: Dose titration, biodistribution and boron uptake using subcutaneous FaDu xenografts; assay type: in vivo, mice; conditions: 2 hr post injection
Description: To determine the biodistribution and boron uptake of BTS and BTS(OMe) in vivo, the following experiments were performed using the following protocols. Briefly, to evaluate the effect of increased dose level using bolus i.v. injection on the accumulation of boron in the tumor, SCID mice carrying subcutaneous FaDu were dosed with BTS and BTS(OMe) at the levels ranging from 400 to 1000 mg/kg.
The tumor and selected organs were harvested at two (2) hr. post injection and processed for ICP OES.

SMILES	intracellular boron concentration (FaDu cells)	CL [3]	Vss [3]	amount of boron in tumors across xenograft panel [4]	solubility in water (Solubility in water)	effect of LAT-1 inhibitor on boron accumulation of borylated tyrosine analogs (LAT-1 [6])	other results
N[C@@H](Cc1ccc(O)c(B(O)O)c1)C(=O)O [BTS]	1700 ± 133 µg/g	0.000304 mg/(μg/mL)/min	0.0252 mg/µg/mL	highest	very soluble in water	–	intracellular boron concentration higher compared to BPA-fructose (FaDu cells; equimolar concentrations): 60%; amount of compound internalized in CT26 less than in FaDu (CT26 cells): more pronounced; boron uptake compared to BPA-fructose [1]: superior uptake; boron concentration achieved, BTS compared to BPA-fructose [2]: > 2 fold; pharmacokinetic profile ([3]; saline formulation, i.v.): bi-phasic pharmacokinetics; uptake in murine pancreas (subcutaneous FaDu tumors): exceedingly high uptake; increase of tumor to blood ratio between 30 and 60 min (subcutaneous FaDu tumors; FaDu xenografts): more than two-fold; decline of boron in the kidney (subcutaneous FaDu tumors; from initial time point of 5 min): considerably slower; IC50 of phenylalanine competition of compound uptake (LAT-1 [5]): higher IC50
NC1(C(=O)O)CC2CCC1C2 (stereo not shown) [BCH, 2-aminobicyclo-(2,2,1)-heptane-2-carboxylic acid]	–	–	–	–	–	diminished boron accumulations in a concentration-dependent fashion	–
N[C@@H](Cc1ccc(B(O)O)cc1)C(=O)O [BPA, 4-Borono-L-phenylalanine, reference compound]	1097 ± 59 µg/g	0.00011 mg/(μg/mL)/min	0.0289 mg/µg/mL	–	–	–	intracellular boron once boron source is removed and replaced with fresh medium (cellular retention) [7]: decreases sharply
COc1ccc(C[C@H](N)C(=O)O)cc1B(O)O [BTS(OMe)]	1005 ± 113 µg/g	–	–	highest	very soluble in water	–	biodistribution compared to BPA (subcutaneous FaDu tumors; BPA-fructose 200): remarkably similar in its biodistribution to BPA; accumulation in kidney or pancreas (subcutaneous FaDu): does not accumulate
Nc1cc(COc2c(Cl)cc(C[C@H](N)C(=O)O)cc2Cl)c2oc(-c3ccccc3)nc2c1 [JPH203]	–	–	–	–	–	diminished boron accumulations in a concentration-dependent fashion	–
